Test results as given in patent US6420605B1, “Benzamidoxim derivatives, intermediate products and methods for preparing and using them as fungicides” (BASF Aktiengesellschaft, priority 1997, dated 2002).

Tested on: powdery mildew of wheat (Erysiphe graminis f.sp.tritici)
Experiment: Efficacy against powdery mildew of wheat (protective spray, greenhouse)
Format: in vivo
Settings: wheat seedlings cv. Frühgold sprayed 24 hours before dusting with spores, after 7 days, untreated plants 80%
Experimental: Leaves of wheat seedlings cv. “Frühgold” grown in pots were sprayed to runoff point with aqueous preparation of active ingredient made with a stock solution composed of 10% active ingredient, 63% cyclohexanone and 27% emulsifier and, 24 hours after the spray coating had dried on, dusted with spores of powdery mildew of wheat (Erysiphe graminis f.sp.tritici). The test plants were subsequently placed in the greenhouse at from 20 to 22° C. and a relative atmospheric humidity of 75 to 80%. After 7 days, the extent of the mildew development was determined visually in % of the total leaf area.

[1] = Example 3, aqueous preparation comprising 63 ppm active ingredient

| Compound | extent of the mildew development determined visually in % of the total leaf area [1] | extent of the mildew development determined visually in % of the total leaf area (Example 4, concentration not given) |
| --- | --- | --- |
| C=CCCON=C(NC(=O)Cc1ccccc1)c1c(F)cccc1OC(F)F [I.3, N-Phenylacetyl-2-difluoromethoxy-6-fluorobenzamide O-allylmethyl oxime] | free from disease |  |
| O=C(Cc1ccccc1)NC(=NOCC1CC1)c1c(F)cccc1OC(F)F [I.6, N-Phenylacetyl-2-difluoromethoxy-6-fluorobenzamide O-cyclopropylmethyl oxime] | free from disease |  |
| N#Cc1c(F)cccc1OC(F)F [II.1, 2-Difluoromethoxy-6-fluorobenzonitrile] |  | free from disease |
